What was measured:
[1] = tested on: PHBPU; experiment: Post-emergence action against PHBPU; format: in vivo, Pharbitis purpurea; settings: Ipomoea purpurea, 504 h; post-emergence, dosage 80 g/ha
Summary of the method: (§1)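 Weeds grown in sandy loam in greenhouse, treated at one-leaf stage (2–3 weeks after sowing) with WP or EC formulations sprayed as aqueous suspension/emulsion at 600 to […] water with 0.2% wetting agent. Visual rating after about 3 weeks versus untreated controls, as % herbicidal action (100% = plants dead, 0% = like control).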

[2] = tested on: AVEFA; experiment: Post-emergence action against AVEFA; format: in vivo, Avena fatua; settings: Avena fatua, 504 h; post-emergence, dosage 80 g/ha, visual assessment about 3 weeks after treatment vs untreated controls; read-out: Post-emergence action against AVEFA (herbicidal action in percent)
Summary of the method: as §1

[3] = tested on: ABUTH; experiment: Pre-emergence action against ABUTH; format: in vivo, Abutilon theophrasti; settings: Abutilon theophrasti, 504 h; pre-emergence, dosage 320 g/ha, scored visually after 3 weeks vs untreated controls; read-out: Pre-emergence action against ABUTH (herbicidal activity)
Summary of the method: (§2)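 Seeds sown in sandy loam in wood-fiber pots and covered with soil. Greenhouse growth; visual damage scored after 3 weeks versus untreated controls (100% = dead, 0% = like control).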

[4] = tested on: POLCO; experiment: Pre-emergence action against POLCO; format: in vivo, Polygonum convolvulus; settings: Fallopia convolvulus, 504 h; Dosage 320 g/ha, pre-emergence
Summary of the method: as §2

[5] = tested on: MATIN; experiment: Post-emergence action against MATIN; format: in vivo, Matricaria inodora
Summary of the method: as §1

[6] = tested on: MATIN; experiment: Pre-emergence action against MATIN; format: in vivo, Matricaria inodora; settings: for Herbicidal efficacy against MATIN: 20 g of a.i./ha
Summary of the method: as §2

[7] = tested on: AMARE; experiment: Post-emergence action against AMARE; format: in vivo, Amaranthus retroflexus; settings: Amaranthus retroflexus, 504 h; post-emergence, dosage 80 g/ha, visual assessment about 3 weeks after treatment vs untreated controls; read-out: Post-emergence action against AMARE (herbicidal action in percent)
Summary of the method: as §1

[8] = tested on: VERPE; experiment: Pre-emergence action against VERPE; format: in vivo, Veronica persica
Summary of the method: as §2

[9] = tested on: VERPE; experiment: Post-emergence action against VERPE; format: in vivo, Veronica persica; settings: Veronica persica, 504 h, dosage 80 g/ha
Summary of the method: as §1

[10] = tested on: ABUTH; experiment: Post-emergence action against ABUTH; format: in vivo, Abutilon theophrasti; settings: Abutilon theophrasti, 504 h; post-emergence, dosage 80 g/ha, visual assessment about 3 weeks after treatment vs untreated controls; read-out: Post-emergence action against ABUTH (herbicidal action in percent)
Summary of the method: as §1

[11] = tested on: STEME; experiment: Post-emergence action against STEME; format: in vivo, Stellaria media; settings: Stellaria media, 504 h; post-emergence, dosage 80 g/ha
Summary of the method: as §1

[12] = tested on: SETVI; experiment: Post-emergence action against SETVI; format: in vivo, Setaria viridis; settings: Setaria viridis, 504 h; post-emergence, dosage 80 g/ha, visual assessment about 3 weeks after treatment vs untreated controls; read-out: Post-emergence action against SETVI (herbicidal action in percent)
Summary of the method: as §1

[13] = tested on: AMARE; experiment: Pre-emergence action against AMARE; format: in vivo, Amaranthus retroflexus
Summary of the method: as §2

[14] = tested on: ECHCG; experiment: Pre-emergence action against ECHCG; format: in vivo, Echinochloa crus-galli
Summary of the method: as §2

[15] = tested on: VIOTR; experiment: Post-emergence action against VIOTR; format: in vivo, Viola tricolor
Summary of the method: as §1

[16] = tested on: SETVI; experiment: Pre-emergence action against SETVI; format: in vivo, Setaria viridis; settings: Setaria viridis, 504 h; pre-emergence, dosage 320 g/ha, scored visually after 3 weeks vs untreated controls; read-out: SETVI (Table B8, pre-emergence herbicidal activity)
Summary of the method: as §2

[17] = tested on: CYPES; experiment: Pre-emergence action against CYPES; format: in vivo, Cyperus esculentus; settings: Cyperus esculentus, 504 h; pre-emergence, dosage 320 g/ha, scored visually after 3 weeks vs untreated controls; read-out: Pre-emergence action against CYPES (herbicidal activity)
Summary of the method: as §2

[18] = tested on: ECHCG; experiment: Post-emergence action against ECHCG; format: in vivo, Echinochloa crus-galli; settings: Echinochloa crus-galli, 504 h; post-emergence, dosage 80 g/ha, visual assessment about 3 weeks after treatment vs untreated controls; read-out: Post-emergence action against ECHCG (herbicidal action in percent)
Summary of the method: as §1

[19] = tested on: VIOTR; experiment: Pre-emergence action against VIOTR; format: in vivo, Viola tricolor; settings: for Herbicidal efficacy against VIOTR: 20 g of a.i./ha
Summary of the method: as §2

[20] = tested on: POLCO; experiment: Post-emergence action against POLCO; format: in vivo, Polygonum convolvulus; settings: Fallopia convolvulus, 504 h; post-emergence, dosage 80 g/ha
Summary of the method: as §1

[21] = tested on: ALOMY; experiment: Post-emergence action against ALOMY; format: in vivo, Alopecurus myosuroides; settings: Alopecurus myosuroides, 504 h; Dosage 80 g/ha, post-emergence
Summary of the method: as §1

[22] = tested on: STEME; experiment: Pre-emergence action against STEME; format: in vivo, Stellaria media
Summary of the method: as §2

[23] = Table V17, post-emergence, 5 g of a.i./ha
[24] = Table V8, pre-emergence, 20 g of a.i./ha

SMILES: CC(=O)c1c(S(C)(=O)=O)ccc(C(=O)Nc2nnnn2C)c1C [1-7]
- pest or weed control at 80 g/ha [1]: 100%
- pest or weed control at 80 g/ha [2]: 80%
- pest or weed control at 320 g/ha [3]: 100%
- pest or weed control at 320 g/ha [4]: 80%
- Herbicidal efficacy against MATIN [5, 23]: 100
- pest or weed control at 80 g/ha ([5]; Tripleurospermum inodorum, 504 h, post-emergence, dosage 80 g/ha, visual assessment about 3 weeks after treatment vs untreated controls, read-out: Post-emergence action against MATIN (herbicidal action in percent)): 100%
- Herbicidal efficacy against MATIN ([6]; Table V5, pre-emergence): 90
- Herbicidal efficacy against MATIN ([6]; Table V8, pre-emergence): 90
- pest or weed control at 320 g/ha ([6]; Tripleurospermum inodorum, 504 h, Dosage 320 g/ha, pre-emergence): 100%
- pest or weed control at 80 g/ha [7]: 100%
- Herbicidal efficacy against VERPE [8, 24]: 100
- pest or weed control at 320 g/ha ([8]; Veronica persica, 504 h, Dosage 320 g/ha, pre-emergence): 100%
- pest or weed control at 80 g/ha [9]: 100%
- pest or weed control at 80 g/ha [10]: 90%
- pest or weed control at 80 g/ha [11]: 100%
- pest or weed control at 80 g/ha [12]: 90%
- pest or weed control at 320 g/ha ([13]; Amaranthus retroflexus, 504 h, pre-emergence, dosage 320 g/ha, scored visually after 3 weeks vs untreated controls, read-out: Pre-emergence action against AMARE (herbicidal activity)): 100%
- Herbicidal efficacy against AMARE [13, 24]: 100
- pest or weed control at 320 g/ha ([14]; Echinochloa crus-galli, 504 h, pre-emergence, dosage 320 g/ha, scored visually after 3 weeks vs untreated controls, read-out: Pre-emergence action against ECHCG (herbicidal activity)): 100%
- Herbicidal efficacy against ECHCG [14, 24]: 70
- Herbicidal efficacy against VIOTR [15, 23]: 100
- pest or weed control at 80 g/ha ([15]; Viola tricolor, 504 h, post-emergence, dosage 80 g/ha): 100%
- pest or weed control at 320 g/ha [16]: 100%
- pest or weed control at 320 g/ha [17]: 100%
- pest or weed control at 80 g/ha [18]: 90%
- Herbicidal efficacy against VIOTR ([19]; Table V5, pre-emergence): 100
- Herbicidal efficacy against VIOTR ([19]; Table V8, pre-emergence): 100
- pest or weed control at 320 g/ha ([19]; Viola tricolor, 504 h, Dosage 320 g/ha, pre-emergence): 100%
- pest or weed control at 80 g/ha [20]: 80%
- pest or weed control at 80 g/ha [21]: 80%
- pest or weed control at 320 g/ha ([22]; Stellaria media, 504 h, Dosage 320 g/ha, pre-emergence): 90%
- Herbicidal efficacy against STEME [22, 24]: 90
